Laboratory results from patent publication US4562292A, “Trifluoromethylketone sulfides and reversible enzyme inhibition therewith” (priority 1983, dated 1985).
Entries after “also recorded” stand apart in the source; their conditions may differ.

How the values were obtained:
[1] = test system: T. ni JHE; experiment: removal of inhibitor by dialysis (reversibility of inhibition); format: biochemical, Trichoplusia ni; conditions: for enzyme activity after dialysis: 48 hours after starting the dialysis
[2] = test system: T. ni larvae; conditions: cited from earlier work
[3] = test system: T. ni larvae; experiment: topical treatment of T. ni larvae, time of pupation; format: in vivo, Trichoplusia ni; conditions: 0.1 and 0.2μ mole per application, 3 times per day, L5D1 and D2, topical
Experimental: (§1) T. ni larvae are treated with 1 or 2μ liters of ethanol, with TFPOS, wit o-ethyl-S-phenyl phosphoramidothiolate (EPPAT), or with 1,1,1-trifluorotetradecan-2-one (TFT) in 1×10^-1 M ethanol solutions on the dorsum of the thorax three times per day (4, 12 and 17 hr after lights on) during the first two days of the last larval stadium. The insects were held under standard rearing conditions (27° C., 14 hr light, 10 hr dark). The time of pupation was checked daily at 4 hr after lights on and the pupae were checked for successful emergence two weeks later.
(§2) Larvae were treated on the dorsum of the thorax with 1 or 2μ liters of ethanol (control) and with 1 or 2μ liters, respectively, of 10^-1 M TFT, TFPOS, DTFT or EPPAT in ethanol, 3 times per day at 4, 12 and 17 h ALO (after lights on) on L5Dl and D2. Time of pupation was checked daily at 4 h ALO, and emergence was checked 2 weeks after treatment. L5Dl larvae 4 h ALO were also treated, but only once with 1μ liter ethanol or with 1μ liter of 10-1 M TFT, TFPOS, or EPPAT in ethanol, and then were bled at 1, 8, 12, 23, 28, or 32 h after treatment. Hemolymph was collected from five larvae, mixed and frozen at -60° C. until assayed for JHE and α-NAE activity. […] Death usually occured during the larval-pupal transformation, with the control mortality at 2μ liters of ethanol being 1%, TFT at 0.2M being 6%, an TFPOS being 4%.

[4] = test system: JH esterase; conditions: crude juvenile hormone esterase from the cabbage looper; cited from earlier work
[5] = test system: T. ni larvae; experiment: mortality of T. ni larvae after repeated topical applications; format: in vivo, Trichoplusia ni
Experimental: as §1, §2

[6] = biological target: T1, human brain neurotoxic esterase (Homo sapiens, UniProt Q8IY17); experiment: blocking of mepafox inhibition of neurotoxic esterase; format: biochemical; conditions: relative to the other compounds
T1 construct: from tissue; host or cells: human brain
T1 sequence (Q8IY17 1-1375): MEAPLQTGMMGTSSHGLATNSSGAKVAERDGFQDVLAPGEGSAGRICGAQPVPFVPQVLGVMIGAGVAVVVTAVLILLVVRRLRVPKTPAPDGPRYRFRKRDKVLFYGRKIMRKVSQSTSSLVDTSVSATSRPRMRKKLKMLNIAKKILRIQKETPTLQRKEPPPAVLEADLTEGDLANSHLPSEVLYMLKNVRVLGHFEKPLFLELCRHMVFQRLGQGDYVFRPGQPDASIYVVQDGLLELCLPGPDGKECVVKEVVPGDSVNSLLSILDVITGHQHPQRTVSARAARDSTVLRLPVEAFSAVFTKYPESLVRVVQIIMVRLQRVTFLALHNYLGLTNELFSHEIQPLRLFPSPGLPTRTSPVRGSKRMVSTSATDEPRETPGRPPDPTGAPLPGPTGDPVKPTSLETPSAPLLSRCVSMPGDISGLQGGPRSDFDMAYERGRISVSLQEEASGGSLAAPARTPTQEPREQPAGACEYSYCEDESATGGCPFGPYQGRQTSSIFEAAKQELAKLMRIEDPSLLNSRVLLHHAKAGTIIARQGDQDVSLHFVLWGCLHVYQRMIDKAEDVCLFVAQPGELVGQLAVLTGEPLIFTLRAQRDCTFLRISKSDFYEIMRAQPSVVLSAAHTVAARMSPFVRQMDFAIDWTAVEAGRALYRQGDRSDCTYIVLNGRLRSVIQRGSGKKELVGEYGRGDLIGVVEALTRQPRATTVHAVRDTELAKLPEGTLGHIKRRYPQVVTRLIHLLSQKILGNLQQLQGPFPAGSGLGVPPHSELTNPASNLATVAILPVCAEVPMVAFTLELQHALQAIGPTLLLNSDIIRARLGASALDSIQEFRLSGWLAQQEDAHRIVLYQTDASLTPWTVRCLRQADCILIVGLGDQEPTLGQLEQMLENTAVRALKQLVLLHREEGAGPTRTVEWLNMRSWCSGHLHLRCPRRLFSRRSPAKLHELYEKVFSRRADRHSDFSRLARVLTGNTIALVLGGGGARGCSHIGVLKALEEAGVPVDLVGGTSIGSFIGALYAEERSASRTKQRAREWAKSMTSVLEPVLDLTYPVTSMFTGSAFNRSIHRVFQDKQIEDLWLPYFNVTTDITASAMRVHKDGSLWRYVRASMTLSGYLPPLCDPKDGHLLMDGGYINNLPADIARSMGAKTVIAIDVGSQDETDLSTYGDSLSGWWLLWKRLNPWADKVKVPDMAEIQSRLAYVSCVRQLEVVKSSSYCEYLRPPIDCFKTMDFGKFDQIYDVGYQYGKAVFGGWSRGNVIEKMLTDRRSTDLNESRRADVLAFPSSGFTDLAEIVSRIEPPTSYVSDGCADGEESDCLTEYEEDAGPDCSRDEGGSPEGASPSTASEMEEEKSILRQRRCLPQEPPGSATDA
Text: The data in Table III were generated by determining what concentration of the various novel compounds were needed to block the inhibition of human brain neurotoxic esterase by a high concentration of mepafox.

[7] = test system: T. ni JHE; experiment: in vivo inhibition of T. ni JHE after topical application; parameters: species or system Trichoplusia ni
Experimental: as §2
In another study, the in vivo inhibition of T. ni JHE following a single dose (0.1μ moles/larve) of EPPAT and TFPOS respectively was monitored. Maximum inhibition of T. ni JHE was obtained one hour after topical application for each.

SMILES	enzyme activity after dialysis [1]	t0.5 of reactivation ([1]; dialysis)	type of inhibition of T. ni JHE ([1]; dialysis)	in vivo activity, topical application to cabbage looper (literature) [2]	delay of pupation versus ethanol controls [3]	in vitro inhibition of juvenile hormone esterase (literature) [4]	mortality at 0.2 µmol/application ([5]; Trichoplusia, topical, repeated applications of 2μ liters (0.2 moles/application), Example VIII)	mortality ([5]; repeated 1μ liter applications of 1×10^-1 M solution)	potency in blocking neurotoxic esterase [6]	persistence of in vivo inhibition ([7]; compared with TFPOS and DTFT)	time of maximum inhibition of T. ni JHE after topical application ([7]; single dose 0.1μ moles/larve)
CCCCCCCCCCCCC(=O)C(F)(F)F [TFT, 1,1,1-trifluorotetradecan-2-one, reference compound]	restored gradually to the same activity as in the uninhibited enzyme	more than 20 hours	reversible inhibitors	lack of pronounced in vivo activity	neither dose of TFT resulted in a delay in pupation; also recorded: no difference in the time of pupation; also recorded: no such in vivo effect	relatively greater juvenile hormone esterase activity in vitro than EPPAT	6%	No mortality			
O=C(CSc1ccc(Oc2ccc(SCC(=O)C(F)(F)F)cc2)cc1)C(F)(F)F [Compound 35]									most potent to date		
CCOP(N)(=O)Sc1ccccc1 (stereo not shown) [EPPAT, O-ethyl-S-phenyl phosphoramidothiolate, reference compound]	almost complete loss of enzyme activity		irreversible inhibitor	disrupt development of the cabbage looper	delayed preparation at both doses; also recorded: pupation was delayed with respect to the controls in a dose-dependent manner	potent in vitro inhibition of juvenile hormone esterase				more persistent	one
